The record followed here is PMC9329436, “Optimization of the 4-anilinoquin(az)oline scaffold as epidermal growth factor receptor (EGFR) inhibitors for chordoma utilizing a toxicology profiling assay platform” (Scientific Reports, 2022).

Common to all, as to type: biochemical
For assay [1], the target named is T1, 320 wild-type protein kinases (Homo sapiens, UniProt O14965).
T1 sequence (O14965 1-403): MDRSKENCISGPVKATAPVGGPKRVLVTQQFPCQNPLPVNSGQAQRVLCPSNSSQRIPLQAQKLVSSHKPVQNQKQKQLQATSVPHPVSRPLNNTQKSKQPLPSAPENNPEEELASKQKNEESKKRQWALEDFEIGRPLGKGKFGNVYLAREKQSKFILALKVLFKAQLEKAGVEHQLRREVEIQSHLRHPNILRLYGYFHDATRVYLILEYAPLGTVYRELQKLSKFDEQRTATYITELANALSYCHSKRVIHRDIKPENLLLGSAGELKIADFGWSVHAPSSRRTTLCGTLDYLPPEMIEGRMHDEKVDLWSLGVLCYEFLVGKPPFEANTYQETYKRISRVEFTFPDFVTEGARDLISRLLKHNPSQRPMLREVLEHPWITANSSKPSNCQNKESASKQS
The settings on record: Aurora-A, singlicate. The source says:
(§1) Table S4. Profiling of two compounds at two concentrations against 320 wild-type protein kinases; singlicate measurement; Residual activities (% of control).

In assay [2] the target is T2, 320 wild-type protein kinases (Homo sapiens, UniProt P53778).
T2 sequence (P53778 1-367): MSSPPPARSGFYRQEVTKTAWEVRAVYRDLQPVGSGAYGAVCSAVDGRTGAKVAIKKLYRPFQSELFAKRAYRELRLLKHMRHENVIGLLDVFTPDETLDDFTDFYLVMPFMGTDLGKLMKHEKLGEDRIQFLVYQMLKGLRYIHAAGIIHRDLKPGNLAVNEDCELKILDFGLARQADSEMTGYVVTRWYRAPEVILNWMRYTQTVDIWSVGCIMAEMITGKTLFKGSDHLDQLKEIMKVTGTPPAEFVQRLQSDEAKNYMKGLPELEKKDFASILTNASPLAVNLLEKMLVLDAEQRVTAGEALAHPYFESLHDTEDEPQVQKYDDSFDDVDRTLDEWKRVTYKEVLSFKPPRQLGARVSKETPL
As to conditions: p38-gamma, singlicate.
From the text: as §1

Assay [3] addresses 320 wild-type protein kinases (Homo sapiens, UniProt Q13164). As to conditions: singlicate.
From the text: as §1

The target of assay [4] is 320 wild-type protein kinases (Homo sapiens, UniProt P78368). The settings on record: singlicate.
320 wild-type protein kinases (Homo sapiens, UniProt P78368), sequence (P78368 whole entry): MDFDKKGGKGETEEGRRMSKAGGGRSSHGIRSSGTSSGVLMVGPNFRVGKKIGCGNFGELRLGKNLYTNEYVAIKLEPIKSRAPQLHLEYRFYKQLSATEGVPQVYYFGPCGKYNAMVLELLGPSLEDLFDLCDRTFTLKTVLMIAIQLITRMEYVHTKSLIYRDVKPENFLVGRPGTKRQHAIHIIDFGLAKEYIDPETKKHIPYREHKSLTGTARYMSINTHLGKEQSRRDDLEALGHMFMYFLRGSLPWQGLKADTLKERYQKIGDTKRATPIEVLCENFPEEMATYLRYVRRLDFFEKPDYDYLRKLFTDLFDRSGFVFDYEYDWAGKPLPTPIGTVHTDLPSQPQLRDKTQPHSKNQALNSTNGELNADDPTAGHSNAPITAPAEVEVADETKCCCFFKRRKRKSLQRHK
From the text: as §1

Assay [5] deals with T3, 320 wild-type protein kinases (Homo sapiens, UniProt Q9NWZ3).
T3 sequence (Q9NWZ3 1-460): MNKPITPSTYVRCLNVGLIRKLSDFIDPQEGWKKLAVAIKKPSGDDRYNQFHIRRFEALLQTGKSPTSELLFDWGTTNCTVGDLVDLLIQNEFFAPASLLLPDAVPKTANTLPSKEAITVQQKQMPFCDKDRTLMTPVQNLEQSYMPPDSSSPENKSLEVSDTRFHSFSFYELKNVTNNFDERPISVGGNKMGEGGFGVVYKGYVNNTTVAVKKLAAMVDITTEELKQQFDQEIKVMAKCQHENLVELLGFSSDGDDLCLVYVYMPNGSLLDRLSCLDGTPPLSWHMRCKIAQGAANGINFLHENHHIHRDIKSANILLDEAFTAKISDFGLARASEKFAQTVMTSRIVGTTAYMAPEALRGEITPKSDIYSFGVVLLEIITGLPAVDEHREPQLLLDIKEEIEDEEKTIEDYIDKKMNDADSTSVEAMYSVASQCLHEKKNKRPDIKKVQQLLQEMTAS
As to conditions: IRAK4 (untagged), singlicate.
From the text: as §1

The target of assay [6] is T4, 320 wild-type protein kinases (Homo sapiens, UniProt Q96L34).
T4 sequence (Q96L34 1-752): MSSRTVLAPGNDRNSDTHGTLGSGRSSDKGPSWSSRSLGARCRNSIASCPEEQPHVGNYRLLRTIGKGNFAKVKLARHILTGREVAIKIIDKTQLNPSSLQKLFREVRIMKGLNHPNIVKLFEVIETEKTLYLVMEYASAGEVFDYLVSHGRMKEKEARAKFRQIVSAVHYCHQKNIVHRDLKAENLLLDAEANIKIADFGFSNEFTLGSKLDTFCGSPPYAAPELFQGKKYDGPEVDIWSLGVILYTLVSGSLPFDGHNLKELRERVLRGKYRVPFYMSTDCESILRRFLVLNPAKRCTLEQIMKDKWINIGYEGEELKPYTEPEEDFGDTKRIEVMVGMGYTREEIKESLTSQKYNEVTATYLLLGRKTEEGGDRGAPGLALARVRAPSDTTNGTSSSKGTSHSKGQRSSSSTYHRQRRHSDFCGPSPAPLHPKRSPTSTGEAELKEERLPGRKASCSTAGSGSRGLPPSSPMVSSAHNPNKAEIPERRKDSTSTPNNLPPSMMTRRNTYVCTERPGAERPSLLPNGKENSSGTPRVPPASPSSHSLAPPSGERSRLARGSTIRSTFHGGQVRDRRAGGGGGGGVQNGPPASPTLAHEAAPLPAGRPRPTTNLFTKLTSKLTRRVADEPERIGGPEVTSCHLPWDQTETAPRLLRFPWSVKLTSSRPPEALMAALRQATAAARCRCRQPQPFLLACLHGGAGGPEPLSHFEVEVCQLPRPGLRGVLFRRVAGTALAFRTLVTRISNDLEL
As to conditions: singlicate.
From the text: as §1

For assay [7], the target named is 320 wild-type protein kinases (Homo sapiens, UniProt Q02750). The settings on record: singlicate.
320 wild-type protein kinases (Homo sapiens, UniProt Q02750), sequence (Q02750 whole entry): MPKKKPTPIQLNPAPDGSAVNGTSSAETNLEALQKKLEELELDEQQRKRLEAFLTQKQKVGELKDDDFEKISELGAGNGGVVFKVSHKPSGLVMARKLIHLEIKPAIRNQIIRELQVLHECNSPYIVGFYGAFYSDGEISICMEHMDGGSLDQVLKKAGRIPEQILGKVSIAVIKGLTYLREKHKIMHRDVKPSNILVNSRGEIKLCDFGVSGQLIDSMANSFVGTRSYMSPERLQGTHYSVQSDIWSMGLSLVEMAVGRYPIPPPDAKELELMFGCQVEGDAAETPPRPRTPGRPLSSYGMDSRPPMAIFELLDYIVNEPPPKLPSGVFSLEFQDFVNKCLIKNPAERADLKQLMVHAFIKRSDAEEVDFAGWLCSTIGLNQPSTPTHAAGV
From the text: as §1

The target of assay [8] is 320 wild-type protein kinases (Homo sapiens, UniProt Q86UE8). As to conditions: kinase TLK2, singlicate.
320 wild-type protein kinases (Homo sapiens, UniProt Q86UE8), sequence (Q86UE8 whole entry): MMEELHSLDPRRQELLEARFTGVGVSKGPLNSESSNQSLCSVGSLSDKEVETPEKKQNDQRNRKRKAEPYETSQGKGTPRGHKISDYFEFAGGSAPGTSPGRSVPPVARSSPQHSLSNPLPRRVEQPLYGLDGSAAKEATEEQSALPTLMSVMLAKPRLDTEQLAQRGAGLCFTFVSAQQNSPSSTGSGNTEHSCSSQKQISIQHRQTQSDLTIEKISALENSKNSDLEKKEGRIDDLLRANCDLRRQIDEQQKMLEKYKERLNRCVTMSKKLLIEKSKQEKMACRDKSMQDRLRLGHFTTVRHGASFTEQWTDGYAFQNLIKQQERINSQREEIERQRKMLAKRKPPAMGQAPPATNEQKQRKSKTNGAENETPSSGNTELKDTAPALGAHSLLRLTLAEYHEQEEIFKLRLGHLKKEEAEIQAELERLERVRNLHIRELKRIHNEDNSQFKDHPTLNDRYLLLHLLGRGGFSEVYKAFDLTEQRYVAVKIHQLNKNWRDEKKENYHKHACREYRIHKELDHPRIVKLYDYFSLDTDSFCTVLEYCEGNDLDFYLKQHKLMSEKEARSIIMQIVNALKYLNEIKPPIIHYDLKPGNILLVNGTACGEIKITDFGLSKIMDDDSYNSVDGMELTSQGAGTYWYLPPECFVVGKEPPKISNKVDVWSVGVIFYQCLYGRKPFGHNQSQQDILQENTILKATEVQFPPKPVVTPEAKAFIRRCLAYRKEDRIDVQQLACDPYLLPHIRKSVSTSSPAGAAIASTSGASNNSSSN
From the text: as §1

Assay [9] addresses 320 wild-type protein kinases (Homo sapiens, UniProt P31751). The settings on record: singlicate.
From the text: as §1

For assay [10], the target named is 320 wild-type protein kinases (Homo sapiens, UniProt P29597). The settings on record: kinase TYK2, singlicate.
320 wild-type protein kinases (Homo sapiens, UniProt P29597), sequence (P29597 whole entry): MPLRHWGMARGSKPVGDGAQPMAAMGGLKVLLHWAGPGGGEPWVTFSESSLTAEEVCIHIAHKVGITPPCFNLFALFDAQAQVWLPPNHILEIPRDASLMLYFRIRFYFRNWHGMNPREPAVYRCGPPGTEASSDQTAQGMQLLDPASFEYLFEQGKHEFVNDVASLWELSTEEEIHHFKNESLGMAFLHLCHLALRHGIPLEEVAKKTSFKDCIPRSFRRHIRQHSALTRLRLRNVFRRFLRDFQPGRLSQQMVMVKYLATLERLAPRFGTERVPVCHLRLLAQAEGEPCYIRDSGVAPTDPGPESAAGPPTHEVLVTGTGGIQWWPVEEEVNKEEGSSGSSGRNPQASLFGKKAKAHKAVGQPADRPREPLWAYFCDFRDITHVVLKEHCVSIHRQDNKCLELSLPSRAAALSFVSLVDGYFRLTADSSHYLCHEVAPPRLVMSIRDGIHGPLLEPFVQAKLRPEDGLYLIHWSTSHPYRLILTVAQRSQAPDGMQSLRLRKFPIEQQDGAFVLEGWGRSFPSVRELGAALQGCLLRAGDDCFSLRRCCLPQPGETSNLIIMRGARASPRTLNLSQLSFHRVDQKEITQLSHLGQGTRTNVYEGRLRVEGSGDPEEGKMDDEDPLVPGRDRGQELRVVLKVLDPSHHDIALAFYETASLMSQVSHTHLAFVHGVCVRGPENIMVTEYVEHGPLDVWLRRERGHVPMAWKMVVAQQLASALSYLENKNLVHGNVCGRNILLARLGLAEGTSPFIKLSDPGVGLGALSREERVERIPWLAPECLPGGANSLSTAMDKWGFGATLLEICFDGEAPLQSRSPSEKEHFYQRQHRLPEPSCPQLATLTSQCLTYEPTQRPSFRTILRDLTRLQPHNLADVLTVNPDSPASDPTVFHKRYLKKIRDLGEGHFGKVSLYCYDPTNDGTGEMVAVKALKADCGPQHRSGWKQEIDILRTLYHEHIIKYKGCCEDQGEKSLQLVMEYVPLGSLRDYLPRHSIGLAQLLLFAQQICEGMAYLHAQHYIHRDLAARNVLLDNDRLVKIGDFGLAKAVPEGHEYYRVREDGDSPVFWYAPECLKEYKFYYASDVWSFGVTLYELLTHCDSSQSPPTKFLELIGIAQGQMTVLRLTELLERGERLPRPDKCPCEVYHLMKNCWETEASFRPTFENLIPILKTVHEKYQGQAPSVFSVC
From the text: as §1

Like-named read-outs stand apart in the source and are kept apart here.

320 wild-type protein kinases (Homo sapiens, UniProt P31751), sequence (P31751 whole entry): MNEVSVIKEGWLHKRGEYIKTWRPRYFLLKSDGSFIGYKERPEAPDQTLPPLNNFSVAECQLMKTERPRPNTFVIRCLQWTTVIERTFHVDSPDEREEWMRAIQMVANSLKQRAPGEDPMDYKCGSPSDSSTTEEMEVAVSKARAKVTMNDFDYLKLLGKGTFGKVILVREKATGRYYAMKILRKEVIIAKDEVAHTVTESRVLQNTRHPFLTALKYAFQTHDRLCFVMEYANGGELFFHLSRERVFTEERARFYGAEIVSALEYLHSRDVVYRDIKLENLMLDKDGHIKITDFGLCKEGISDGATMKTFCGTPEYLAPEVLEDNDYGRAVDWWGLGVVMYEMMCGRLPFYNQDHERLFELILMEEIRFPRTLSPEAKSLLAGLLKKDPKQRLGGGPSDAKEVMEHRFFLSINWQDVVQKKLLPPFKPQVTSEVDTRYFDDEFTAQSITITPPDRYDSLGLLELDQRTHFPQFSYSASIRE
320 wild-type protein kinases (Homo sapiens, UniProt Q13164), sequence (Q13164 whole entry): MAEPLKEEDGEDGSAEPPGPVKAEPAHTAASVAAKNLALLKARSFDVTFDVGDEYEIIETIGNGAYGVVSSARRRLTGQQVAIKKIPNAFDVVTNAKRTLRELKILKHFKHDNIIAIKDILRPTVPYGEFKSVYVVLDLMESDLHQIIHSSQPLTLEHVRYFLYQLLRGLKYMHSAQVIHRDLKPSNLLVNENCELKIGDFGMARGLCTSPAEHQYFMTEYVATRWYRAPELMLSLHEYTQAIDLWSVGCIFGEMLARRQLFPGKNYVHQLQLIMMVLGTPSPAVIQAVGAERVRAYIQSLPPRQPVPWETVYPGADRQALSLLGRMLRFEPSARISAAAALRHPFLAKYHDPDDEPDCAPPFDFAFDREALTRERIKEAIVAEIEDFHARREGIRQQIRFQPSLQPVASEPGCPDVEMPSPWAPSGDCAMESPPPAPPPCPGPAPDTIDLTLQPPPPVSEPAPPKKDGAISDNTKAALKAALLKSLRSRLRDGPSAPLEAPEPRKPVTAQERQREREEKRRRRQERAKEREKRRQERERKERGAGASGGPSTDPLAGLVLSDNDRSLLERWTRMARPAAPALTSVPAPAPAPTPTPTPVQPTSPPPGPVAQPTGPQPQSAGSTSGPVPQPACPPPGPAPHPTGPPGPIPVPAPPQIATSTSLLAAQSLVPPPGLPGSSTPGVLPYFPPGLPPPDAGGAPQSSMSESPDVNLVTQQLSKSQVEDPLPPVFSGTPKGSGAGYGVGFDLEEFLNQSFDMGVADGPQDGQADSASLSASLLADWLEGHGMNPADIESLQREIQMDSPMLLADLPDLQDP

As to `C#Cc1cc(Nc2ncnc3cc(OC)c(OC)cc23)ccc1Cl` [Compound 45], the Residual activity in [1] (1.0E-06 M) is recorded as 80 % of control; in assay [1] (1.0E-07 M), 99 % of control; in assay [2] (1.0E-06 M), 85 % of control; in [2] (1.0E-07 M), 90 % of control; in assay [3] (ERK5, 1.0E-06 M), 85 % of control; in [3] (ERK5, 1.0E-07 M), 96 % of control. Moreover, the Residual activity is reported as 109 % of control in assay [4] (CK1-gamma2, 1.0E-06 M); 111 % of control in [4] (CK1-gamma2, 1.0E-07 M); 69 % of control in assay [5] (1.0E-06 M); 90 % of control in assay [5] (1.0E-07 M); 115 % of control in [6] (MARK4, 1.0E-06 M); 110 % of control in [6] (MARK4, 1.0E-07 M). Further, the Residual activity in assay [7] (MEK1, 1.0E-06 M) was 109 % of control; in [7] (MEK1, 1.0E-07 M) it was 105 % of control; in assay [9] (AKT2 aa107-481, 1.0E-06 M) it was 94 % of control; in [9] (AKT2 aa107-481, 1.0E-07 M), 112 % of control. Besides, the “Residual activity, TLK2” value in assay [8] (assay conc. 1.0E-06 M) was 103 % of control; in assay [8] (assay conc. 1.0E-07 M) it was 111 % of control. Moreover, the “Residual activity, TYK2” value in [10] (assay conc. 1.0E-06 M) was 114 % of control; in assay [10] (assay conc. 1.0E-07 M), 96 % of control.
As to `C#Cc1cc(Nc2ncnc3cc(I)ccc23)ccc1Cl` [Compound 41], the Residual activity in [1] (1.0E-06 M) is 81 % of control; in [1] (1.0E-07 M) it was 95 % of control; in [2] (1.0E-06 M), 78 % of control; in assay [2] (1.0E-07 M), 87 % of control; in assay [3] (ERK5, 1.0E-06 M), 74 % of control; in [3] (ERK5, 1.0E-07 M), 92 % of control. Further, the Residual activity in assay [4] (CK1-gamma2, 1.0E-06 M) is given as 112 % of control; in assay [4] (CK1-gamma2, 1.0E-07 M), 119 % of control; in [5] (1.0E-06 M), 84 % of control; in assay [5] (1.0E-07 M), 96 % of control; in assay [6] (MARK4, 1.0E-06 M) it was 114 % of control; in [6] (MARK4, 1.0E-07 M), 111 % of control. The Residual activity in [7] (MEK1, 1.0E-06 M) is on record as 104 % of control; in assay [7] (MEK1, 1.0E-07 M), 109 % of control; in [9] (AKT2 aa107-481, 1.0E-06 M) it was 86 % of control; in [9] (AKT2 aa107-481, 1.0E-07 M) it was 98 % of control. The results for the “Residual activity, TLK2” value in assay [8] (assay conc. 1.0E-06 M) and in assay [8] (assay conc. 1.0E-07 M) were 109 % of control and 117 % of control, respectively. Besides, the “Residual activity, TYK2” value in assay [10] (assay conc. 1.0E-06 M) is 94 % of control; in [10] (assay conc. 1.0E-07 M), 101 % of control.
